Results published in paper PMC10831936 (iScience, 2024).
Entries after “also recorded” stand apart in the source; their conditions may differ.

Columns and labels:
[1] = tested on: ERBB receptors, HTR2A, and downstream signaling pathways; test: ERBBprofiler multiplexed barcoded assay, overall statements across all receptor batches and sensors; conditions: 10 μM compound; PC12 cells; stimulation mix
EGFR EGR1p = test: ERBBprofiler barcoded EGR1p pathway sensor, EGFR co-transfected; conditions: Rattus norvegicus, PC-12, 6 h, read-out: EGFR EGR1p IC50
HTR2A = HTR2A (Homo sapiens, UniProt P28223); test: ERBBprofiler barcoded split TEV assay, HTR2A
Chain of HTR2A (P28223 whole entry): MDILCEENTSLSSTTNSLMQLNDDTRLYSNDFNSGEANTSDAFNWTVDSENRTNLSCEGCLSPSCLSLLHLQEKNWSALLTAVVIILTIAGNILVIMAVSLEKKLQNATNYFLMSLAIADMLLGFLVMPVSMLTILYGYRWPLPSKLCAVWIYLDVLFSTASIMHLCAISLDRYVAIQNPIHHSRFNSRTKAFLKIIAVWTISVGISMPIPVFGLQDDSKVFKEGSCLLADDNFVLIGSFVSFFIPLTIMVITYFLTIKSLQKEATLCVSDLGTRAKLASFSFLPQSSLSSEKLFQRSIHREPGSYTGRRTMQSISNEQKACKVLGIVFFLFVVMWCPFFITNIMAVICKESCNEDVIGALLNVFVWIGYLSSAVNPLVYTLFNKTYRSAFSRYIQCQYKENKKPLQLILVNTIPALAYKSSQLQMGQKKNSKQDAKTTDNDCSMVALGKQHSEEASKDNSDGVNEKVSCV

EGFR = tested on: EGFR; design: method as in Fry et al., 1994; conditions: phospho-WB in A-431 cells; ref Fry et al., 1994; read-out: IC50_Literature, EGFR; cited from earlier work
HTR2A NFAT = test: ERBBprofiler barcoded NFAT pathway sensor, HTR2A co-transfected; conditions: Rattus norvegicus, PC-12, 6 h, read-out: HTR2A NFAT IC50
ERBB4 CRE = test: ERBBprofiler barcoded CRE pathway sensor, ERBB4 co-transfected; conditions: PC12 cells; constant EGF 30 ng/mL, EGFld 10 ng/mL, serotonin 1 μM; 6 h; barcode readout; relative IC50
HTR2A CRE = test: ERBBprofiler barcoded CRE pathway sensor, HTR2A co-transfected; conditions: Rattus norvegicus, PC-12, 6 h, read-out: HTR2A CRE IC50
ERBB3 = tested on: ERBB3; design: method as in Boateng et al., 2021; conditions: ELISA in MCF-7 cells; ref Boateng et al., 2021; read-out: IC50_Literature, ERBB3; cited from earlier work
[2] = tested on: SkBr3, BT474 and HER2-overexpressing ovarian cancer cells SkOV3; design: method as in Moasser et al., 2001; conditions: cell growth assay in SkBr3, BT474 and SkOV3 cells; ref Moasser et al., 2001; read-out: IC50_Literature, ERBB2; cited from earlier work
EGFR CRE = test: ERBBprofiler barcoded CRE pathway sensor, EGFR co-transfected; conditions: PC12 cells; constant EGF 30 ng/mL, EGFld 10 ng/mL, serotonin 1 μM; 6 h; barcode readout; relative IC50
ERBB4 NFAT = test: ERBBprofiler barcoded NFAT pathway sensor, ERBB4 co-transfected; assay type: cell-based, Rattus norvegicus; conditions: PC12 cells; constant EGF 30 ng/mL, EGFld 10 ng/mL, serotonin 1 μM; 6 h; barcode readout; relative IC50
[3] = tested on: SK–BR–3 cells and NCI-N87 cells; design: method as in Li et al., 2017; conditions: Proliferation assay, SRB method, ref Li et al., 2017, read-out: IC50_Literature, ERBB2; cited from earlier work
A-431 cells = tested on: A-431 cells; design: method as in Li et al., 2017; conditions: Proliferation assay, SRB method, ref Li et al., 2017, read-out: IC50_Literature, EGFR; cited from earlier work
CRE sensor = CRE sensor only luciferase assay in PC12 cells; assay type: cell-based, Rattus norvegicus
EGFR NFAT = test: ERBBprofiler barcoded NFAT pathway sensor, EGFR co-transfected; assay type: cell-based, Rattus norvegicus; conditions: PC12 cells; constant EGF 30 ng/mL, EGFld 10 ng/mL, serotonin 1 μM; 6 h; barcode readout; relative IC50

| IC50 (EGFR EGR1p) [nM] | IC50 (HTR2A) [nM] | IC50 (HTR2A NFAT) [nM] | IC50 (HTR2A CRE) [nM] | EC50 (CRE sensor; Rattus norvegicus, PC-12) [nM] | Compound | CRE sensor response at high compound concentration (barcoded) [1] | IC50 (EGFR) [nM] | ERBB4 CRE IC50 (ERBB4 CRE) | IC50 (ERBB3) [nM] | IC50 [2] [nM] | EGFR CRE IC50 (EGFR CRE) | ERBB4 NFAT IC50 (ERBB4 NFAT) | IC50 [3] [nM] | IC50 (A-431 cells) [nM] | effect on CRE sensor activity (luciferase), in words (CRE sensor; PC12 cells, CRE sensor only, stimulation mix) | EGFR NFAT IC50 (EGFR NFAT) |
| --- | --- | --- | --- | --- | --- | --- | --- | --- | --- | --- | --- | --- | --- | --- | --- | --- |
| 23 | 17 | 64 | 31 | – | COc1cc2ncnc(Nc3cccc(Cl)c3)c2cc1OC [AG1478, AG-1478 (Tyrphostin AG-1478)] | […] | […] | no effect (EGFR, ERBB2/3, ERBB4); 0.031 µM (HTR2A, small effect) | 857 | 300 to 2000 | no effect (EGFR, ERBB2/3, ERBB4); 0.031 µM (HTR2A, small effect) | – | – | – | – | – |
| 261 | 184 | 576 | – | 1380 | CCOc1cc2ncc(C#N)c(Nc3ccc(OCc4ccccn4)c(Cl)c3)c2cc1NC(=O)/C=C/[C@H]1CCCN1C [Pyrotinib] | upregulation of the CRE sensor; also recorded: upregulated CRE sensor response | – | – | – | – | – | no effect (EGFR, ERBB2/3, ERBB4) - 0.576 µM (HTR2A, small effect) | 39 to 42 | 45 | CRE sensor activation at high compound concentrations | no effect (EGFR, ERBB2/3, ERBB4) - 0.576 µM (HTR2A, small effect) |
